Data from ChEMBL document CHEMBL1127968, “Examination of peptidic ,-diamino-,-difluoroketones as inhibitors of human leukocyte elastase” (Bioorg Med Chem Lett, 1994).

Target: T1, Neutrophil elastase (Homo sapiens, UniProt P08246)
T1 sequence (P08246 whole entry): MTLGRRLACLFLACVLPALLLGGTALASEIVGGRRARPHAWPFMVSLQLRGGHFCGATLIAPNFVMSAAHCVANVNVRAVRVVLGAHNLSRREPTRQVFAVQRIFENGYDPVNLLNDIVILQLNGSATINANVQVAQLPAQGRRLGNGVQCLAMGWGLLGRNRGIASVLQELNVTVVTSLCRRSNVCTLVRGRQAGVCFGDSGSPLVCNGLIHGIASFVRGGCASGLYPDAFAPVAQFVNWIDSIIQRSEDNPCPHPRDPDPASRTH
Test: In vitro inhibitory activity against human leukocyte elastase was determined

| SMILES | Ki [nM] | IC50 [nM] |
| --- | --- | --- |
| CC(C)[C@H](NC(=O)OCc1ccccc1)C(=O)N1CCC[C@H]1C(=O)N[C@H](C(=O)C(F)(F)C(N)=O)C(C)C | 0.38 | – |
| CNC(=O)C(F)(F)C(=O)[C@@H](NC(=O)[C@@H]1CCCN1C(=O)[C@@H](NC(=O)Oc1ccccc1)C(C)C)C(C)C | 0.85 | – |
| CC(C)[C@H](NC(=O)Oc1ccccc1)C(=O)N1CCC[C@H]1C(=O)N[C@H](C(=O)C(F)(F)CNCc1ccccc1)C(C)C | 4.1 | – |
| CC(C)[C@H](NC(=O)Oc1ccccc1)C(=O)N1CCC[C@H]1C(=O)N[C@H](C(=O)C(F)(F)CNC(=O)OC(C)(C)C)C(C)C | 0.39 | – |
| CC(C)[C@H](NC(=O)OCc1ccccc1)C(=O)N1CCC[C@H]1C(=O)N[C@H](C(=O)C(F)(F)CNC(=O)OC(C)(C)C)C(C)C | 1.1 | – |
| COc1ccc(C(=O)N[C@H](C(=O)N2CCC[C@H]2C(=O)N[C@H](C(=O)C(F)(F)CN)C(C)C)C(C)C)cc1 | 15 | – |
| CNC(=O)C(F)(F)C(=O)[C@@H](NC(=O)[C@@H]1CCCN1C(=O)[C@@H](NC(=O)c1ccc(OC)cc1)C(C)C)C(C)C | 3.4 | – |
| CNC(=O)C(F)(F)C(=O)[C@@H](NC(=O)[C@@H]1CCCN1C(=O)[C@@H](NC(=O)OCc1ccccc1)C(C)C)C(C)C | 3 | – |
| CC(C)[C@H](NC(=O)Oc1ccccc1)C(=O)N1CCC[C@H]1C(=O)N[C@H](C(=O)C(F)(F)F)C(C)C | 2.3 | – |
| COc1ccc(C(=O)N[C@H](C(=O)N2CCC[C@H]2C(=O)N[C@H](C(=O)C(F)(F)CNCc2ccccc2)C(C)C)C(C)C)cc1 | 0.35 | – |
| CC(C)[C@H](NC(=O)Oc1ccccc1)C(=O)N1CCC[C@H]1C(=O)N[C@H](C(=O)C(F)(F)CN)C(C)C | 0.81 | – |

The remaining lines, values ahead:

| Ki [nM] | IC50 [nM] | SMILES |
| --- | --- | --- |
| 3.4 | – | COc1ccc(C(=O)N[C@H](C(=O)N2CCC[C@H]2C(=O)N[C@H](C(=O)C(F)(F)CNC(=O)OC(C)(C)C)C(C)C)C(C)C)cc1 |
| 130 | – | CC(C)[C@H](NC(=O)OCc1ccccc1)C(=O)N1CCC[C@H]1C(=O)N[C@H](C(=O)C(F)(F)CN)C(C)C |
| – | 3.5 | CC(C)CC(=O)NCC(F)(F)C(=O)C(CC1CCCCC1)NC(=O)[C@@H](NC(=O)[C@H](Cc1ccccc1)NC(=O)OC(C)(C)C)C(C)C (stereo partly specified) |
| 0.65 | – | COc1ccc(C(=O)N[C@H](C(=O)N2CCC[C@H]2C(=O)N[C@H](C(=O)C(F)(F)C(N)=O)C(C)C)C(C)C)cc1 |
| 1.6 | – | CC(C)[C@H](NC(=O)OCc1ccccc1)C(=O)N1CCC[C@H]1C(=O)N[C@H](C(=O)C(F)(F)CNCc1ccccc1)C(C)C |
